For 1 compound, Km and Vmax results are on record in patent publication US20080038728A1, “Quadruple Transformed Cell Line Useful for the Identification of Transport Inhibitors” (priority 2004, published 2008).

The target in data set [1] is T1, OATP1B1 (Homo sapiens, UniProt Q9Y6L6).
T1 sequence (Q9Y6L6 1-691): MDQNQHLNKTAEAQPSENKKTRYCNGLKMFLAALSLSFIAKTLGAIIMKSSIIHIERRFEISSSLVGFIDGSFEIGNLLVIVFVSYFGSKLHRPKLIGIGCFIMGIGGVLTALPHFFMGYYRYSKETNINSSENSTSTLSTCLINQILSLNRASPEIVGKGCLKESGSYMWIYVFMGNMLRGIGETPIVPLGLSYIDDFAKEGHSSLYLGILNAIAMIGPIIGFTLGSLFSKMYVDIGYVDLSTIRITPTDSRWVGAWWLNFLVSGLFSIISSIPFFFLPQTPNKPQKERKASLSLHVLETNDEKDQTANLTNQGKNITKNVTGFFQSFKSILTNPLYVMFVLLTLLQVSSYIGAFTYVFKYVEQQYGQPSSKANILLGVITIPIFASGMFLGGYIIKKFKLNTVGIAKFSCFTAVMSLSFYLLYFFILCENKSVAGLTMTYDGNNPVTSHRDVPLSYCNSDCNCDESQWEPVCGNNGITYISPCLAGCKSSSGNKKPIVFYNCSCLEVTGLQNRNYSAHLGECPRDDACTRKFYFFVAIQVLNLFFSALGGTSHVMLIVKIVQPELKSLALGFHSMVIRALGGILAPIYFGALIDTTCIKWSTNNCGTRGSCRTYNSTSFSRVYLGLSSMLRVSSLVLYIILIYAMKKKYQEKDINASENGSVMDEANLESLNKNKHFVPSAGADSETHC
The settings on record: cRNA-injected Xenopus laevis oocytes; cited from earlier work.

The target in data set [2] is T2, OATP2B1 (Homo sapiens, UniProt O94956).
T2 sequence (O94956 1-709): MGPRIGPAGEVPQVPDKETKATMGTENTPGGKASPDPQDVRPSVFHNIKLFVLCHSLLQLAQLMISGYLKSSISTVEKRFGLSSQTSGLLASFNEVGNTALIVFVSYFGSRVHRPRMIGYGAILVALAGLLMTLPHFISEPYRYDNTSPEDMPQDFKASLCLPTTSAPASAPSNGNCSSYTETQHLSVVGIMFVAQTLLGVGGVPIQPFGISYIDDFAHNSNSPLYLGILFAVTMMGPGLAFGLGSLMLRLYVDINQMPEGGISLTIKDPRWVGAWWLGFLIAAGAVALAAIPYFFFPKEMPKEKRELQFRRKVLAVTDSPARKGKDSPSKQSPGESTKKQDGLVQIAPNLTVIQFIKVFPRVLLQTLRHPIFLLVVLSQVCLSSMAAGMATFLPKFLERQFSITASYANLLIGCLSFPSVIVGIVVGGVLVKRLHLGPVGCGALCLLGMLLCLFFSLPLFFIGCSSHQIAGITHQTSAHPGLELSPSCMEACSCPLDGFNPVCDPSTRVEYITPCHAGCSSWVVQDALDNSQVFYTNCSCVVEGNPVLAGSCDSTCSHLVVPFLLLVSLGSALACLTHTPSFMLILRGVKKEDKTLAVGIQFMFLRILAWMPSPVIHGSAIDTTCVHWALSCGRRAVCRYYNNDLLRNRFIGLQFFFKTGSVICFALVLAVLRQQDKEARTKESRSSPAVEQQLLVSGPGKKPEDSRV
The settings on record: cRNA-injected Xenopus laevis oocytes; cited from earlier work.

Data set [3] deals with ABCC2 (Homo sapiens, UniProt Q92887). Set-up: expressed in transfected cells; host or cells: MDCKII-ABCC2 single-transfected cells (membrane vesicles). The settings on record: BSP: Cui et al., 2001; CCK-8: Letschert et al., 2005; cited from earlier work.
Data set [4] concerns the target T2, OATP2B1. The experiment in a line: Uptake (intracellular accumulation) kinetics in ABCC2/OATP2B1 double-transfected MDCKII cells. Set-up: expressed in transfected cells; host or cells: MDCKII (canine kidney) ABCC2 single-transfectant, further transfected with pcDNA3.1/Hygro(-)-OATP2B1. The following applies: cell line ABCC2-OATP2B1; intracellular accumulation of 3H-labeled substrate. The format is in vitro ADME. As for the experimental part: (a) MDCKII cells were grown on ThinCerts (24-mm diameter, pore size 0.4 μm, pore density 1×10^8 per cm^2) and induced with butyrate as mentioned above. […] The ^3H-labeled substrate was dissolved in transport buffer and added either to the apical or to the basolateral compartment at the concentration indicated. After incubation at 37° C., the radioactivity in the opposite compartment was measured by sampling aliquots from the apical or basolateral compartment. Cells were washed 2 times with ice-cold transport buffer containing 0.5% bovine serum albumin and 3 times in ice-cold transport buffer. Intracellular accumulation of radioactivity was calculated by lyzing the cells with 0.2% sodium dodecyl sulfate (SDS) and measuring the radioactivity in the lysate.

Chain of ABCC2 (Q92887 whole entry): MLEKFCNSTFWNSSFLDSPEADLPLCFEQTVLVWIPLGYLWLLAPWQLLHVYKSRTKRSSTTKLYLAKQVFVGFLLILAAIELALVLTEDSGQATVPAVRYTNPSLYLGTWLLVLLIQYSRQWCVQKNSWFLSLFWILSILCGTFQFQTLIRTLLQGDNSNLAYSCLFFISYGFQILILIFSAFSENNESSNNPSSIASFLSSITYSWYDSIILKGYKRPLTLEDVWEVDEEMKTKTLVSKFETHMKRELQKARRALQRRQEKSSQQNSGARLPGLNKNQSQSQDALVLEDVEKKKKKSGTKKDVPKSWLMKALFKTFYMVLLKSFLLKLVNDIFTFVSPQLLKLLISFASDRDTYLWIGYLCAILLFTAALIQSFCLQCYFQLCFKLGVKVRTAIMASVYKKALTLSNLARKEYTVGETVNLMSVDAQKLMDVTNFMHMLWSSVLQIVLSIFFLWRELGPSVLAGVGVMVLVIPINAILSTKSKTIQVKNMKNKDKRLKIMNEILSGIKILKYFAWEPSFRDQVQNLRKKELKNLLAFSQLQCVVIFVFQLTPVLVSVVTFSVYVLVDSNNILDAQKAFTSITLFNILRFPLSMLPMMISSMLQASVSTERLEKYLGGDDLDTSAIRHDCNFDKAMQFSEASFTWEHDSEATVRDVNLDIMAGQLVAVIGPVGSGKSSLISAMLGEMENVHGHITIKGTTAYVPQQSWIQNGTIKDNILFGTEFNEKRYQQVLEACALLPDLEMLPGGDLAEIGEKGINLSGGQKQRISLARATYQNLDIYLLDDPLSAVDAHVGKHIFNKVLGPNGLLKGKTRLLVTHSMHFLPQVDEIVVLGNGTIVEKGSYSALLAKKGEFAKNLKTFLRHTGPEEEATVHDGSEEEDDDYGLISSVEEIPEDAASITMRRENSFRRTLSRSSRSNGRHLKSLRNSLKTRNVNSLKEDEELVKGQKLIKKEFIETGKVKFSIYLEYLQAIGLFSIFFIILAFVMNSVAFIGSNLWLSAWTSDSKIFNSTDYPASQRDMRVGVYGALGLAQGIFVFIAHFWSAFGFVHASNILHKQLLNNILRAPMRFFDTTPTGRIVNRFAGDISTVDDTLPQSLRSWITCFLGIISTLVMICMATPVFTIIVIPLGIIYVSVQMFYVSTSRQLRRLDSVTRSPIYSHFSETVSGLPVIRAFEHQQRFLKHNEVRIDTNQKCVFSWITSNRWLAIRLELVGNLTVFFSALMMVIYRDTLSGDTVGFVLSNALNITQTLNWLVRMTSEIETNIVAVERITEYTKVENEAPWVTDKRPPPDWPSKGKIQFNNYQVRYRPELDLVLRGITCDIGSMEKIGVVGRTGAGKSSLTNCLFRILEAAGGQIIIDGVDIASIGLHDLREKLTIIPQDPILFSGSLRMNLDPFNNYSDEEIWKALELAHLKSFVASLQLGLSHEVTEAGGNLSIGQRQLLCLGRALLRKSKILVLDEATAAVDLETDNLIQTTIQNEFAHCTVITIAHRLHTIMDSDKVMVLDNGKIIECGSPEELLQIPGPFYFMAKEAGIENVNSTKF

As for `O=C1OC(c2ccc(O)c(S(=O)(=O)O)c2)(c2ccc(O)c(S(=O)(=O)O)c2)c2c(Br)c(Br)c(Br)c(Br)c21` [Bromosulfophthalein], the Km is 0.3 µM in data set [1], 0.7 µM in data set [2] and 12 µM in data set [3]. Besides, the Vmax in data set [4] is listed as 52.8 ± 8.6 pmol · mg protein^−1 · min^−1.
